Source: patent US9862748B2, “Peptide compounds and methods of production and use thereof” (priority 2012, dated 2018)
Where two headings read alike, the source gives them in different places. Square brackets hold non-standard residues; d marks the D form. Ends that are not written are not given here. Peptide text beside a SMILES is read from it. AEEA = NCCOCCOCC(=O)O

What was measured:
[1] = test system: E. coli ATCC® strain 25922™; format: cell-based, Escherichia coli; set-up: unit not given here; conditions: Table 6
Method: (§1) In vitro bactericidal activity: The three peptide compounds BCC01-5RMP (SEQ ID NO: 21), BCC02-5RMP (SEQ ID NO: 22), and BCC03-5RMP (SEQ ID NO: 23) were assayed for in vitro bactericidal activity against Pseudomonas aeruginosa, Escherichia coli, Salmonella typhimurium, and Acinetobacter baumannii. The starting inoculum for all experiments was 1×10^6 colony forming units (CFU)/ml. The CFU remaining at the end of 60 to 180 minute incubation was determined, and the data plotted as a log reduction in CFU/ml.

[2] = test system: Pseudomonas aeruginosa ATCC® 27853™; format: cell-based; set-up: Effects of Peptide Compounds on Pseudomonas aeruginosa ATCC ® 27853 ™: unit not given here; conditions: for Effects of Peptide Compounds on Pseudomonas aeruginosa ATCC ® 27853 ™: Table 6
Method: as §1
(§2) For FIGS. 10-13, in vitro bactericidal assays were performed using a starting inoculum of 1×10^6 CFU/ml of the bacterial suspension. The CFU remaining at the end of the 60-180 minute incubation was determined, and the data was plotted as log reduction in CFU/ml.
(§3) In particular, each of the test peptides (CAP37 peptides 120-146WR, 120-146WH, and 95-122 (SEQ ID NOs: 30, 31, and 26, respectively)) was used at 25, 12.5, 6.25, and 3.12 μM. Gentamicin was used at 4 μg/ml. 1×10^6/ml Acinetobacter baumannii ATCC® BAA-747™ or Pseudomonas aeruginosa ATCC® 27853™ (American Type Culture Collection, Manassas, Va.) were incubated with the peptides, negative buffer control (tryptone saline), and positive control gentamicin at pH 5.5 or 7.2. A 60 minute incubation was used for Acinetobacter baumannii ATCC® BAA-747™, while a 180 minute incubation was used for Pseudomonas aeruginosa ATCC® 27853™. 50 μl aliquots were plated out on agar plates and incubated overnight. Colony forming units were counted after overnight incubation and CFU/ml calculated.
For FIG. 14, 1×10^6/ml Pseudomonas aeruginosa ATCC® 27853™ were incubated with each of the test peptides (CAP37 peptides 120-146WR, 120-146WH, 120-146QR, 120-146QH, 120-146QR-5RMP, and 120-146QH-5RMP (SEQ ID NOs: 30, 31, 28, 29, 32, and 33, respectively)) at 150, 75, and 37.5 μg/ml, or negative buffer control (tryptone saline), for 180 minutes at pH 5.5. 50 μl aliquots were plated out on agar plates and incubated overnight. Colony forming units were counted after overnight incubation and CFU/ml calculated.

[3] = test system: human corneal epithelial cell (HCEC); assay: HCEC chemotaxis, modified Boyden chemotaxis chamber assay; format: cell-based; conditions: for HCEC migration versus buffer control: 120-146QH 10^−4 to 10^−10 M, 120-146QR 10^−6 and 10^−8 M, HB-EGF 50 ng/ml, rCAP37 250 ng/ml, 3 hours
Method: The effect of buffer control (0.1% BSA in Gey's buffer), heparin binding-epidermal growth factor (HB-EGF, 50 ng/ml), recombinant CAP37 (rCAP37, 250 ng/ml), 120-146QH ([…], 10^−10M, 10^−8M, 10^−4M, and 10^−4M,) and 120-146QR (10^−10M, 10^−8M, 10^−6M, and 10^−4M) on HCEC chemotaxis was determined by the modified Boyden chemotaxis chamber method. HCEC chemotaxis was measured in response to HB-EGF, rCAP37, and peptides 120-146QH (SEQ ID NO: 29) and 120-146QR (SEQ ID NO: 28) after incubation for 3 hours at 37° C. Chemotaxis is expressed as a percent migration. The buffer control (no chemoattractant) is arbitrarily assigned the value of 100% migration. Data are expressed as means±SEM and are calculated from 6 observations for each test point. **P<0.01 by Wilcoxon signed-rank test as compared to controls.
Chemotaxis assays were performed using the modified Boyden chemotaxis chamber assay. Peptide 120-146QH was used at 10^−4M, 10^−6M, 10^−8 M, 10^−10 M, and 10^−12M, and peptide 120-146QR was used at 10^−4M, 10^−6M, 10^−8 M, and 10^−10 M.

swine skin wounds [4] = assay: Swine dermal wound model, histological evaluation; format: in vivo; conditions: day 14 post-wounding
Method: The characteristics that were measured are required to indicate features of a well-healed wound. Inflammation should be low and re-epithelialization high.
(§4) Full thickness excisional wounds were induced on the dorsum of swine (N=3) using a 1.0 cm biopsy punch. Treatments were administered (0.20 ml) to each wound (N=6 wounds per group), and the wounds were dressed with standard occlusive dressing ([…]™, 3M Corporation, St. Paul, Minn.). Treatments were reapplied daily and dressings changed. Clinical wound healing observations and wound area (2 mm) measurements were performed on days 0, 3, 5, 7, 10, and 14 post-wounding. Wound area (2 mm) data were expressed as percentage (%) of wound healing. Animals were terminated on day 14 with wounds harvested and processed for histological evaluation. […] All peptide formulation treatment groups healed faster with greater rate of closure and re-epithelialization over time, as compared to the saline control (Group A).
The histology correlated with the clinical observations. […] There were minimal differences in the amount or character of granulation tissue, inflammation, and angiogenesis. All the wounds were well filled and vascularized.

[5] = test system: mouse cornea (corneal epithelial abrasion); assay: In vivo model of corneal wound healing; conditions: treated at 0 and 16 hours; 95-122 10^−5 M; 120-146WH 10^−8 M or 10^−6 M; HB-EGF 250 ng/ml
Method: The in vivo model of wound healing was carried out using a disposable biopsy punch (2 mm, Miltex, York, Pa.) to demarcate the mouse cornea and a 0.5 mm burr using the AlgerBrush II (The Alger Company, Inc., Lago Vista, Tex.) to remove the corneal epithelium.
Mice were anesthetized using ketamine (100 mg/kg; Bionichepharma, LLC., St. Lake Forrest, Ill.) and xylazine ([…]; Rompun; Bayer Corp., Shawnee Mission, Kans.), and the right cornea was wounded as follows. A disposable biopsy punch (2 mm, Miltex, York, Pa.) was used to demarcate the mouse cornea. The corneal epithelium was carefully removed within the 2 mm demarcated area with a 0.5 mm burr using the AlgerBrush II (The Alger Company, Inc., Lago Vista, Tex.). The corneal abrasions were treated at 0 and 16 hours with HB-EGF (250 ng/ml), rCAP37 (250 ng/ml), or vehicle control (0.9% sodium chloride, pH 5.5, Baxter, Deerfield, Ill.). Corneal abrasions were visualized using sterile fluorescein sodium ophthalmic strips USP (FLUORETS®, Chauvin Laboratory, Aubenas, France) dampened with sterile PBS. Images were taken at 0, 16, 24, and 48 hours immediately following fluorescein staining using a surgical microscope equipped with a camera (Carl Zeiss OPMI VISU 140, Carl Zeiss Surgical, Inc., Oberkochen, Germany). The areas of the open wound were quantitated using ImageJ software (US National Institutes of Health), and the results were reported as the percentage of wound closure.
Whole mouse eyes were collected for histology at 0, 6, 16, 24, and 48 hours post wounding and were immediately placed in Prefer fixative (Anatech LTD., Battle Creek, Mich.) for 20 minutes before being transferred to 70% ethanol. Tissues were paraffin-embedded and cut at a thickness of 5 μm, mounted on SUPERFROSTPLUS® slides (Statlab Medical Products, Lewisville, Tex.), and subsequently deparaffinized, rehydrated, and washed in deionized water. Sections were stained with hematoxylin (Leica Microsystems, Buffalo Grove, Ill.) and rinsed twice in deionized water before being washed in Blue Buffer (Leica Microsystems). The sections were finally washed in deionized water and 95% ethanol prior to being counterstained with eosin (Leica Microsystems). Sections were dehydrated in ethanol and cleared in xylene.

swine skin wounds [6] = assay: Swine full thickness excisional dermal wound model, wound area; format: in vivo
Method: In this Example, peptide compounds of the presently disclosed and claimed inventive concept(s) were evaluated as to their activity on the dermal wound healing process in a clinically relevant swine full thickness excisional wound model. Three different peptide formulations (Group B, Peptide 95-122 (SEQ ID NO: 26); Group C, Peptide 120-146WH (SEQ ID NO: 31); and Group D, Peptide 120-146QH-5RMP (SEQ ID NO: 33)) were each evaluated at the same concentration (3 mg/ml). Sterile saline served as the control (Group A).
as §4

[7] = test system: Acinetobacter baumannii ATCC® BAA-747™; format: cell-based; conditions: 25 μM
Method: as §1, §2, §3

[8] = 3 mg/ml, 0.20 ml per wound, reapplied daily

CC[C@H](C)[C@H](NC(=O)[C@H](CC(C)C)NC(=O)[C@H](C)NC(=O)CNC(=O)CNC(=O)[C@H](CS)NC(=O)[C@H](Cc1ccccc1)NC(=O)[C@H](Cc1c[nH]cn1)NC(=O)[C@H](CCCNC(=N)N)NC(=O)CNC(=O)[C@H](CCC(N)=O)NC(=O)[C@H](CC(N)=O)NC(=O)COCCOCCNC(=O)COCCOCCN)C(=O)N[C@@H](Cc1c[nH]cn1)C(=O)N[C@@H](C)C(=O)N[C@@H](CCCNC(=N)N)C(=O)N[C@@H](Cc1ccccc1)C(=O)N[C@H](C(=O)N[C@@H](CCSC)C(=O)N[C@H](C(=O)N[C@@H](C)C(=O)N[C@@H](C)C(=O)N[C@@H](CO)C(=O)N[C@@H](CO)C(=O)N[C@@H](Cc1ccccc1)C(=O)N[C@@H](CCC(N)=O)C(=O)O)[C@@H](C)O)C(C)C [BCC03-MP] (H-[AEEA][AEEA]NQGRHFCGGALIHARFVMTAASSFQ-OH; N-terminus and C-terminus assumed)
Effects of Peptide Compounds on Escherichia coli ATCC ® 25922 ™ ([1]; Peptide Conc 6.25 μg/ml): 6.4 | Effects of Peptide Compounds on Escherichia coli ATCC ® 25922 ™ ([1]; Peptide Conc 200 μg/ml): 46.0 | Effects of Peptide Compounds on Pseudomonas aeruginosa ATCC ® 27853 ™ ([2]; Peptide Conc 12.5 μg/ml): −45.6 | Effects of Peptide Compounds on Pseudomonas aeruginosa ATCC ® 27853 ™ ([2]; Peptide Conc 50 μg/ml): −2.9 | Effects of Peptide Compounds on Pseudomonas aeruginosa ATCC ® 27853 ™ ([2]; Peptide Conc 100 μg/ml): 44.0

GTRCQVAGWGSQHSGGRLSRFPRFVNV [Peptide 120-146QH]
HCEC migration versus buffer control [3]: significantly increase migration | HCEC migration compared with whole CAP37 protein ([3]; 120-146QH at 10^−6 M and 10^−8 M): comparable

GTRCQVAGWGSQRSGGRLSRFPRFVNV [Peptide 120-146QR]
HCEC migration versus buffer control [3]: significantly increase migration

GTRCQVAGWGSWHSGGRLSRFPRFVNV [Peptide 120-146WH]
epidermal resurfacing and maturation of the epidermis versus saline control (swine skin wounds [4]): greater extent of epidermal resurfacing and maturation of the epidermis | Histopathology Results, Mean Angiogenesis (swine skin wounds [4]; 3 mg/ml): 1.7 | Histopathology Results, Mean Epithelization (swine skin wounds [4]; 3 mg/ml): 3.7 | Histopathology Results, Mean Granulation (swine skin wounds [4]; 3 mg/ml): 4.0 | Histopathology Results, Mean Inflammation (swine skin wounds [4]; 3 mg/ml): 0.5 | corneal wound healing versus vehicle [5]: significantly greater | Mean Wound Healing (%) Day 0 (swine skin wounds [6]; [8]): 0.0% | Mean Wound Healing (%) Day 3 (swine skin wounds [6]; [8]): 22.1% | Mean Wound Healing (%) Day 5 (swine skin wounds [6]; [8]): 35.9% | Mean Wound Healing (%) Day 7 (swine skin wounds [6]; [8]): 59.7% | Mean Wound Healing (%) Day 10 (swine skin wounds [6]; [8]): 93.5% | Mean Wound Healing (%) Day 14 (swine skin wounds [6]; [8]): 97.5% | dermal wound healing (swine skin wounds [6]; topical 3 mg/ml over 14 days, vs saline): accelerate dermal wound healing | activity against A. baumannii at 25 μM [7]: highly active | effectiveness against Pseudomonas aeruginosa compared with gentamicin, pH 7.2 ([2]; peptide at 25 VIM (so in the source), gentamicin 4 μg/ml): as effective as the standard antibiotic gentamicin

RRRRNQGRHFCGGALIHARFVMTAASCFQR (5-arginine peptide derivative of CAP37 peptide) [SEQ ID NO: 18 (Linear)]
Effects of Peptide Compounds on Escherichia coli ATCC ® 25922 ™ ([1]; Peptide Conc 262.8 μg/ml): 100.0 | Effects of Peptide Compounds on Pseudomonas aeruginosa ATCC ® 27853 ™ ([2]; Peptide Conc 87.6 μg/ml): 100.0

RRRRNQGRHFCGGALIHARFVMTAASCFQR (not fully specified; cysteine pairing not given here) [SEQ ID NO: 18 (Cyclized)]
Effects of Peptide Compounds on Escherichia coli ATCC ® 25922 ™ ([1]; Peptide Conc 25 μg/ml): 38.0 | Effects of Peptide Compounds on Escherichia coli ATCC ® 25922 ™ ([1]; Peptide Conc 400 μg/ml): 82.0 | Effects of Peptide Compounds on Pseudomonas aeruginosa ATCC ® 27853 ™ ([2]; Peptide Conc 3.125 μg/ml): 100.0 | Effects of Peptide Compounds on Pseudomonas aeruginosa ATCC ® 27853 ™ ([2]; Peptide Conc 6.25 μg/ml): 100.0 | Effects of Peptide Compounds on Pseudomonas aeruginosa ATCC ® 27853 ™ ([2]; Peptide Conc 12.5 μg/ml): 100.0 | Effects of Peptide Compounds on Pseudomonas aeruginosa ATCC ® 27853 ™ ([2]; Peptide Conc 25 μg/ml): 100.0 | Effects of Peptide Compounds on Pseudomonas aeruginosa ATCC ® 27853 ™ ([2]; Peptide Conc 50 μg/ml): 100.0 | Effects of Peptide Compounds on Pseudomonas aeruginosa ATCC ® 27853 ™ ([2]; Peptide Conc 100 μg/ml): 100.0 | Effects of Peptide Compounds on Pseudomonas aeruginosa ATCC ® 27853 ™ ([2]; Peptide Conc 200 μg/ml): 100.0 | Effects of Peptide Compounds on Pseudomonas aeruginosa ATCC ® 27853 ™ ([2]; Peptide Conc 400 μg/ml): 100.0
